Source: ChEMBL document CHEMBL6092221, “Discovery of a Novel Macrocyclic Noncovalent CDK7 Inhibitor for Cancer Therapy” (J Med Chem, 2024)

What was measured:
[1] = biological target: Cyclin-dependent kinase 7/ cyclin H (Homo sapiens, UniProt P50613); assay: Binding affinity to CDK7/CyclinH (unknown origin) assessed as dissociation constant by SPR assay; type: protein-complex assay
[2] = Metabolic stability in mouse liver microsomes assessed as intrinsic clearance; type: ADME, Microsome; conditions: read-out: CLH
[3] = Permeability in human Caco-2 cells; type: ADME, cell-based; conditions: read-out: permeability
[4] = AUC(0 to t) in female Balb/c nude mouse at 5 mg/kg, po; type: ADME, organism-based; conditions: in vivo
[5] = Half life in mouse at 1 mg/kg, iv; type: ADME, organism-based; conditions: in vivo
[6] = Half life in dog at 2 mg/kg, po; type: ADME, organism-based, Canis lupus familiaris; conditions: in vivo
[7] = Half life in rat at 5 mg/kg, po; type: ADME, organism-based; conditions: in vivo
[8] = Clearance in rat at 1 mg/kg, iv; type: ADME, organism-based; conditions: in vivo
[9] = Volume of distribution at steady state in mouse at 1 mg/kg, iv; type: ADME, organism-based; conditions: in vivo, read-out: Vdss
[10] = Volume of distribution at steady state in rat at 1 mg/kg, iv; type: ADME, organism-based; conditions: in vivo, read-out: Vdss
[11] = Volume of distribution at steady state in dog at 0.2 mg/kg, iv; type: ADME, organism-based, Canis lupus familiaris; conditions: in vivo, read-out: Vdss
[12] = AUC(0 to t) in mouse at 1 mg/kg, iv; type: ADME, organism-based; conditions: in vivo
[13] = AUC(0 to t) in rat at 1 mg/kg, iv; type: ADME, organism-based; conditions: in vivo
[14] = AUC(0 to t) in rat at 5 mg/kg, po; type: ADME, organism-based; conditions: in vivo
[15] = AUC(0 to t) in dog at 2 mg/kg, po; type: ADME, organism-based, Canis lupus familiaris; conditions: in vivo
[16] = Cmax in mouse at 5 mg/kg, po; type: ADME, organism-based; conditions: in vivo
[17] = Cmax in rat at 5 mg/kg, po; type: ADME, organism-based; conditions: in vivo
[18] = Cmax in dog at 2 mg/kg, po; type: ADME, organism-based, Canis lupus familiaris; conditions: in vivo
[19] = Oral bioavailability in rat at 5 mg/kg; type: ADME, organism-based; conditions: in vivo
[20] = Oral bioavailability in dog at 2 mg/kg; type: ADME, organism-based, Canis lupus familiaris; conditions: in vivo
[21] = Drug concentration in rat small intestine at 5 mg/kg, po measured after 0.5 hrs; type: ADME, organism-based; conditions: read-out: Ct
[22] = Drug concentration in rat plasma at 5 mg/kg, po measured after 0.5 hrs; type: ADME, organism-based
[23] = Cmax in Sprague-Dawley rat at 100 mg/kg, po; type: ADME, organism-based; conditions: in vivo
[24] = AUC(0 to 24 hrs) in Sprague-Dawley rat at 30 mg/kg, po; type: ADME, organism-based; conditions: in vivo
[25] = AUC(0 to 48 hrs) in Sprague-Dawley rat at 300 mg/kg, po; type: ADME, organism-based; conditions: in vivo
[26] = biological target: Cyclin-Y/Cyclin-dependent kinase 16 (Homo sapiens, UniProt Q00536); assay: Inhibition of CDK16/CyclinY (unknown origin); type: protein-complex assay
[27] = biological target: Mitogen-activated protein kinase 7 (Homo sapiens, UniProt Q13164); assay: Inhibition of Erk5 (unknown origin)
CDK4/Cyclin D3 = CDK4/Cyclin D3 (Homo sapiens, UniProt P11802); assay: Inhibition of CDK4/Cyclin D3 (unknown origin); type: protein-complex assay
[28] = biological target: Ribosomal protein S6 kinase alpha-3 (Homo sapiens, UniProt P51812); assay: Inhibition of RSK2 (unknown origin)
[29] = Plasma protein binding in mouse assessed as unbound fraction; type: ADME, cell-free
[30] = Plasma protein binding in rat assessed as unbound fraction; type: ADME, cell-free
[31] = Metabolic stability in rat liver microsomes assessed as intrinsic clearance; type: ADME, Microsome; conditions: read-out: CLH
[32] = Plasma stability in human assessed as half life; type: ADME, cell-free
Cytochrome P450 1A2 = Cytochrome P450 1A2 (Homo sapiens, UniProt P05177); assay: Inhibition of CYP1A2 (unknown origin); type: ADME
[33] = biological target: Voltage-gated inwardly rectifying potassium channel KCNH2 (Homo sapiens, UniProt Q12809); assay: Inhibition of hERG; type: toxicity
OVCAR-3 [34] = assay: Antitumor activity against human OVCAR-3 cells xenografted in female Balb/c nude mouse assessed as tumor growth inhibition at 2 mg/kg, po administered once daily and measured on day 22; type: functional; conditions: OVCAR-3, 528 h, time 22 day, read-out: TGI
OVCAR-3 [35] = assay: Antitumor activity against human OVCAR-3 cells xenografted in female Balb/c nude mouse assessed as tumor growth inhibition at 5 mg/kg, po administered once daily and measured on day 22; type: functional; conditions: OVCAR-3, 528 h, time 22 day, read-out: TGI
[36] = Half life in human OVCAR-3 cells xenografted in female Balb/c nude mouse plasma at 2 mg/kg, po administered once daily; type: ADME, organism-based
[37] = Half life in human OVCAR-3 cells xenografted in female Balb/c nude mouse plasma at 5 mg/kg, po administered once daily; type: ADME, organism-based
[38] = Half life in human OVCAR-3 cells xenografted in female Balb/c nude mouse plasma at 10 mg/kg, po administered once daily; type: ADME, organism-based
[39] = Cmax in human OVCAR-3 cells xenografted in female Balb/c nude mouse plasma at 2 mg/kg, po administered once daily; type: ADME, organism-based
[40] = Cmax in human OVCAR-3 cells xenografted in female Balb/c nude mouse plasma at 5 mg/kg, po administered once daily; type: ADME, organism-based
[41] = Cmax in human OVCAR-3 cells xenografted in female Balb/c nude mouse plasma at 10 mg/kg, po administered once daily; type: ADME, organism-based
[42] = Cmax in human OVCAR-3 cells xenografted in female Balb/c nude mouse plasma at 20 mg/kg, po administered once daily; type: ADME, organism-based
[43] = AUC (0 to t) in human OVCAR-3 cells xenografted in female Balb/c nude mouse plasma at 2 mg/kg, po administered once daily; type: ADME, organism-based
[44] = Cmax in human HCC70 cells xenografted in female nu/nu mouse plasma at 1 mg/kg, po administered once daily; type: ADME, organism-based
[45] = AUC(0 to t) in human HCC70 cells xenografted in female nu/nu mouse plasma at 1 mg/kg, po administered once daily; type: ADME, organism-based
[46] = Toxicity in female nu/nu mouse xenografted with human HCC70 cells assessed as body weight loss at 1 to 10 mg/kg, po administered once daily and measured for 4 weeks; type: organism-based; conditions: in vivo, 672 h, dose 1-10 mg/kg
HCC70 = assay: cells; conditions: Homo sapiens, HCC70, 72 h
Description: Antiproliferative activity against human HCC70 cells assessed as inhibition of cell proliferation incubated for 72 hrs by celltiter-glo assay

[47] = biological target: Cyclin-dependent kinase 7 (Homo sapiens) (UniProt P50613); assay: Inhibition of CDK7 (unknown origin) at 200 nM relative to control; values are per cent of control
[48] = biological target: Serine/threonine-protein kinase D1 (Homo sapiens) (UniProt Q15139); assay: Inhibition of PRKD1 (unknown origin) at 200 nM relative to control; values are per cent of control
[49] = biological target: Serine/threonine-protein kinase D2 (Homo sapiens) (UniProt Q9BZL6); assay: Inhibition of PRKD2 (unknown origin) at 200 nM relative to control; values are per cent of control
[50] = biological target: Cyclin-Y/Cyclin-dependent kinase 16 (Homo sapiens) (UniProt Q00536+Q8ND76); assay: Inhibition of CDK16/CyclinY (unknown origin) at 200 nM relative to control; values are per cent of control

Cytochrome P450 1A2, sequence (P05177 whole entry): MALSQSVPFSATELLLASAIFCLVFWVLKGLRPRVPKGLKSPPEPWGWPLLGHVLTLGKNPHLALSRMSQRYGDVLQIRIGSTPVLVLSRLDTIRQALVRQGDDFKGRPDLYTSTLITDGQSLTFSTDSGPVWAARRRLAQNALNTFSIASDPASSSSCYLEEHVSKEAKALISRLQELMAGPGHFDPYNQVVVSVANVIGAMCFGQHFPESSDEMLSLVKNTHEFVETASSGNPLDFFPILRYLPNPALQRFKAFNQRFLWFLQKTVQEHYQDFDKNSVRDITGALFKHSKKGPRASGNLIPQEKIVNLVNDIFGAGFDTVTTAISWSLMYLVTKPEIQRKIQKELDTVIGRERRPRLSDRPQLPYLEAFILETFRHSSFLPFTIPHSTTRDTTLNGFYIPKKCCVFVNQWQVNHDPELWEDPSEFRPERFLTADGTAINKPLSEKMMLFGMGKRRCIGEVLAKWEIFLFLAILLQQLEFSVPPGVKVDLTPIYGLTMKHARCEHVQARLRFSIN
Serine/threonine-protein kinase D2 (Homo sapiens), sequence (Q9BZL6 whole entry): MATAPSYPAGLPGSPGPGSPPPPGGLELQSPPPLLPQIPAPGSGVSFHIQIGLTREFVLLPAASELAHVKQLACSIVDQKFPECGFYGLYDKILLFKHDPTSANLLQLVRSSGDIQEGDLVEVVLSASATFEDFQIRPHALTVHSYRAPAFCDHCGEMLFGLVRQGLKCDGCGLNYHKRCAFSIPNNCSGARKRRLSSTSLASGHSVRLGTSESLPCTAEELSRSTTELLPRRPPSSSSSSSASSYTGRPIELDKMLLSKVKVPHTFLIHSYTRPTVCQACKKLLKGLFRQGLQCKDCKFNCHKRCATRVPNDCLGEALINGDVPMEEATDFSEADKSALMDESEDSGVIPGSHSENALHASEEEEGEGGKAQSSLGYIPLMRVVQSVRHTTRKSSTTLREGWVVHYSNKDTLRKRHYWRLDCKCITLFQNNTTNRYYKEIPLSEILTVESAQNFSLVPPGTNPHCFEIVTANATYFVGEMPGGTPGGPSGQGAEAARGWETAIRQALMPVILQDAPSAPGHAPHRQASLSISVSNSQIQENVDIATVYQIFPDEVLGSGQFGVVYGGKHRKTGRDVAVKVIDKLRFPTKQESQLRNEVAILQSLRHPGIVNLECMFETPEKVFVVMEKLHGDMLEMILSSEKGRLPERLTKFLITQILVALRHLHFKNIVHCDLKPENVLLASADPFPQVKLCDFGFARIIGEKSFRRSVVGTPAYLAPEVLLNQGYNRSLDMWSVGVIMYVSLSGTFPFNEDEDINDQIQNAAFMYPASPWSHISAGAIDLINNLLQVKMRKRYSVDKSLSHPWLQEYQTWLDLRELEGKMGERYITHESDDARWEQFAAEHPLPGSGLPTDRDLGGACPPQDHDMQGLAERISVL
Cyclin-Y/Cyclin-dependent kinase 16, sequence (Q00536 whole entry): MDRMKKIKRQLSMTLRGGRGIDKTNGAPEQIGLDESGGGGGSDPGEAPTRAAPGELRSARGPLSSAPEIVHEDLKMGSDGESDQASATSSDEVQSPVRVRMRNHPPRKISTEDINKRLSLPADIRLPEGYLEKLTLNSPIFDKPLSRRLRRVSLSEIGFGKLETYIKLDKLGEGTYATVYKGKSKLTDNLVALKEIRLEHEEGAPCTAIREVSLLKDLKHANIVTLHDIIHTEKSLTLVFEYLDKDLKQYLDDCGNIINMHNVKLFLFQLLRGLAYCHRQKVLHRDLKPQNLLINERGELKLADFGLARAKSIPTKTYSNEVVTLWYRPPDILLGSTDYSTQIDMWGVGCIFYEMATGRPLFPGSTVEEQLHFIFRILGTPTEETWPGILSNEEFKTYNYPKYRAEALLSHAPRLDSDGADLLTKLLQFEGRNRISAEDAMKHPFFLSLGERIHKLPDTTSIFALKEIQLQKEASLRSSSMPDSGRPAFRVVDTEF
Cyclin-Y/Cyclin-dependent kinase 16, sequence (Q8ND76 whole entry, further chain): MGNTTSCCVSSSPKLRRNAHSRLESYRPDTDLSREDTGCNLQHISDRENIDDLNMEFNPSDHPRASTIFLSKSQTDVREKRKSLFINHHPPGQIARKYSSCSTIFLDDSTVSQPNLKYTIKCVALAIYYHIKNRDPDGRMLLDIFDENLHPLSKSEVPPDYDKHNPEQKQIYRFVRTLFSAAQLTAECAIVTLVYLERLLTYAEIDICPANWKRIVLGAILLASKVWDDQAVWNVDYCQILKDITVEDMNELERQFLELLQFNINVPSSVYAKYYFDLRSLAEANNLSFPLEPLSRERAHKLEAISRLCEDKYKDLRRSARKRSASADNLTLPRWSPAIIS
Voltage-gated inwardly rectifying potassium channel KCNH2, sequence (Q12809 whole entry): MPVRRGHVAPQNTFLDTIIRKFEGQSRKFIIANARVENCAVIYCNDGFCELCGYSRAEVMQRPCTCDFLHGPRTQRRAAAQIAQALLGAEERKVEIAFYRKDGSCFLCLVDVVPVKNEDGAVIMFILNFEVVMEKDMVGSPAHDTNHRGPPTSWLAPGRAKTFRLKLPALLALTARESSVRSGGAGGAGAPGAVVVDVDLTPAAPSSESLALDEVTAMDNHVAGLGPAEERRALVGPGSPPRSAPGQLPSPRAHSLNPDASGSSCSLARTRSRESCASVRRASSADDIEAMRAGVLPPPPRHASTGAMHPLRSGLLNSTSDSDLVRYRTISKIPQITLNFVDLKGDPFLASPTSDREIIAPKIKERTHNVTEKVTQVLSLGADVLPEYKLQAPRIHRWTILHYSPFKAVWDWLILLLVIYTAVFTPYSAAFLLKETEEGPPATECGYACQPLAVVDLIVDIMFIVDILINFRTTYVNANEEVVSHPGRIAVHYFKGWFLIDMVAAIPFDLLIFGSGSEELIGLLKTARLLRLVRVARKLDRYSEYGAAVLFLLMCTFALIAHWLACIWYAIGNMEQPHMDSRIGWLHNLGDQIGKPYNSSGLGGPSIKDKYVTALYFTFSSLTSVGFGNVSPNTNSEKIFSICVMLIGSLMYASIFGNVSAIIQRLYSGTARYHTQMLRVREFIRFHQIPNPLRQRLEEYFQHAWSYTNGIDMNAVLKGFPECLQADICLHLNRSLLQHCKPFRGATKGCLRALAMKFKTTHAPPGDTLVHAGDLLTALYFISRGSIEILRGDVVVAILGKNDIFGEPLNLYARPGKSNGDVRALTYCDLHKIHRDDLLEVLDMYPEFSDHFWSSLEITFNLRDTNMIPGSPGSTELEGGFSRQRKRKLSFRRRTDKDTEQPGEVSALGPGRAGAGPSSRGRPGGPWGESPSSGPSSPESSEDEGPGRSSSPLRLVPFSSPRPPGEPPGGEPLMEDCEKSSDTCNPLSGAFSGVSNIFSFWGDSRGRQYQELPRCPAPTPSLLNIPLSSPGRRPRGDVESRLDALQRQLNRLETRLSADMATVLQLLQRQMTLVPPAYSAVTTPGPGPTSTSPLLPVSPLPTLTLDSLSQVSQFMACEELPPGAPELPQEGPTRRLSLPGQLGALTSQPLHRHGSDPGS
Cyclin-dependent kinase 7 (Homo sapiens), sequence (P50613 whole entry): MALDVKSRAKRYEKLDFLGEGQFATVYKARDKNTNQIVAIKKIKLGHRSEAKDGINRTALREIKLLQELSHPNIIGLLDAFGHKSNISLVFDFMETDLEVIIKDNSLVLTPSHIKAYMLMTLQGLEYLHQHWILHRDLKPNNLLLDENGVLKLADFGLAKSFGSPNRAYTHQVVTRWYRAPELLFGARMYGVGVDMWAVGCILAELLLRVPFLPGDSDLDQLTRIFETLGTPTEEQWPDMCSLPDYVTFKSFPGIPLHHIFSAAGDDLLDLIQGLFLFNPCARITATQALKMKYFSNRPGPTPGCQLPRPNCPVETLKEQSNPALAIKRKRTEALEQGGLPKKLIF
Ribosomal protein S6 kinase alpha-3, sequence (P51812 whole entry): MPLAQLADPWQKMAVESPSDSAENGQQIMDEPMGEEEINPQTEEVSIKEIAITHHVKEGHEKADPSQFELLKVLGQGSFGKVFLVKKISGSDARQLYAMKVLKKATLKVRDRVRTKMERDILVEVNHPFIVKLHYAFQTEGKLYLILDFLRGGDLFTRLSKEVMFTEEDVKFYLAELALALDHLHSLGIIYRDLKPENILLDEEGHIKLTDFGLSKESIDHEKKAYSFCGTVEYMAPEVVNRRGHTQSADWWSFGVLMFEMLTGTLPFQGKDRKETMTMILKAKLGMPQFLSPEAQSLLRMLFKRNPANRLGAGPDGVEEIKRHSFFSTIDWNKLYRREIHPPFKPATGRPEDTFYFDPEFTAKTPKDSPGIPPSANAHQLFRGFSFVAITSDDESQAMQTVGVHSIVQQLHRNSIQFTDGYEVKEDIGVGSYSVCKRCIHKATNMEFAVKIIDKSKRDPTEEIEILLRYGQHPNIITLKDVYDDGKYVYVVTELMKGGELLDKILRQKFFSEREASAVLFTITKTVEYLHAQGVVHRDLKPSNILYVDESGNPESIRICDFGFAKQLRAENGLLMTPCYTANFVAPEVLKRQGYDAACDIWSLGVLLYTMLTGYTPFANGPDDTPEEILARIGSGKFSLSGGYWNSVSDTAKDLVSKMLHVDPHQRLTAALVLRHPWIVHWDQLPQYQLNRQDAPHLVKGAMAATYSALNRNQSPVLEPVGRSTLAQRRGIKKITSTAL
Cyclin-dependent kinase 7/ cyclin H, sequence (P51946 whole entry): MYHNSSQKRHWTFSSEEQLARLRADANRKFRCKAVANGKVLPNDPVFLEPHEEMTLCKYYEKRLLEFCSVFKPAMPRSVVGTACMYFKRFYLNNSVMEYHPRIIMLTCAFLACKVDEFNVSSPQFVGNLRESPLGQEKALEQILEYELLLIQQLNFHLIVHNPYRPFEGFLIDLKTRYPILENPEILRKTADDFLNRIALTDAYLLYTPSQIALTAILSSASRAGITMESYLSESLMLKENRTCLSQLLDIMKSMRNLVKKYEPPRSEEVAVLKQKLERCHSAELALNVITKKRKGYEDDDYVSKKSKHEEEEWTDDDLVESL
Cyclin-dependent kinase 7/ cyclin H, sequence (P50613 whole entry): as the sequence (P50613 whole entry) above

Compound: CN1CC(F)(F)CCN(C)[C@H]2CC[C@@H](C2)Nc2ncc(C(F)(F)F)c(n2)-c2c[nH]c3c(P(C)(C)=O)c(ccc23)C1=O
- Kd [1]: 0.18 nM
- CLint scaled [2]: 84.3 mL/min/kg
- Papp [3]: 3.69 ×10⁻⁶ cm/s
- AUC(0-t) [4]: 938 ng·h/mL
- half-life [5]: 2 h
- half-life [6]: 4.4 h
- half-life [7]: 1.4 h
- clearance [8]: 39.9 mL/min/kg
- Vd [9]: 1.7 L/kg
- Vd [10]: 2.6 L/kg
- Vd [11]: 0.24 L/kg
- AUC(0-t) [12]: 315 ng·h/mL
- AUC(0-t) [13]: 415 ng·h/mL
- AUC(0-t) [14]: 554 ng·h/mL
- AUC(0-t) [15]: 44600 ng·h/mL
- Cmax [16]: 355 ng/mL
- Cmax [17]: 165 ng/mL
- Cmax [18]: 6620 ng/mL
- bioavailability [19]: 29%
- bioavailability [20]: 147%
- concentration at 0.5 h [21]: 2240 ng/g
- concentration at 0.5 h [22]: 33.9 ng/mL
- Cmax [23]: 3830 ng/mL
- AUC(0-t) [24]: 3960 ng·h/mL
- AUC(0-t) [25]: 15300 ng·h/mL
- IC50 [26]: 2.8 nM
- IC50 [27]: 26.5 nM
- IC50 (CDK4/Cyclin D3): 13.1 nM
- IC50 [28]: 291 nM
- fraction unbound [29]: 0.036
- fraction unbound [30]: 0.044
- CLint scaled [31]: 44.9 mL/min/kg
- half-life [32]: > 4.82 h
- IC50 (Cytochrome P450 1A2): > 50000 nM
- IC50 [33]: 9940 nM
- inhibition in vivo at 2 mg/kg (OVCAR-3 [34]): 110%
- inhibition in vivo at 5 mg/kg (OVCAR-3 [35]): 111%
- half-life [36]: 1.7 h
- half-life [37]: 2.8 h
- half-life [38]: 2 h
- Cmax [39]: 214 ng/mL
- Cmax [40]: 400 ng/mL
- Cmax [41]: 580 ng/mL
- Cmax [42]: 1690 ng/mL
- AUC(0-t) [43]: 329 ng·h/mL
- Cmax [44]: 75 ng/mL
- AUC(0-t) [45]: 84 ng·h/mL
- Activity [46]: Non-toxic
- IC50 (HCC70): 24.6 nM
- residual activity [47]: 0.35%
- residual activity [48]: 19%
- residual activity [49]: 20%
- residual activity [50]: 0.8%
